Measured values published in patent US20080125480A1, “Oil-In-Water Formulation Of Avermectins” (priority 2004, published 2008).

Columns and labels:
[1] = Stability of Abamectin in water at various pH-values and temperatures (dark, HPLC); assay type: physicochemical
Protocol: The stability of Abamectin in water at various pH-values and temperatures was determined. 194.4 mg of abamectin was dissolved in 10 ml methanol and 1 ml of the solution transferred to 100 ml of de-mineralised water and a part of this was transferred to a buffer solution. The sample was kept in the dark and the solution analysed using a HPLC.

[2] = Stability of Abamectin in water exposed to light at various pH-values (HPLC); assay type: physicochemical
Protocol: The stability of Abamectin in water exposed to light at various pH-values was determined. 194.4 mg of abamectin was dissolved in 10 ml methanol and 1 ml of the solution transferred to 100 ml of demineralised water and a part of this transferred to a buffer solution. […]

Q: What does the source list for Abamectin?
A: Abamectin concentration ([1]; pH 4.0, 25 °C, 7 days): 3.130 ppm; Abamectin concentration ([1]; pH 4.0, 25 °C, 14 days): 2.782 ppm; Abamectin concentration ([1]; pH 4.0, 25 °C, 21 days): 2.566 ppm; Abamectin concentration ([1]; pH 4.0, 25 °C, 28 days): 2.524 ppm; Abamectin concentration ([1]; pH 4.0, 25 °C, Initial): 3.495 ppm; Abamectin concentration ([1]; pH 4.0, 50 °C, 7 days): 1.054 ppm; Abamectin concentration ([1]; pH 4.0, 50 °C, 14 days): 0.383 ppm; Abamectin concentration ([1]; pH 4.0, 50 °C, 21 days): 0.123 ppm; Abamectin concentration ([1]; pH 4.0, 50 °C, 28 days): 0.0609 ppm; Abamectin concentration ([1]; pH 4.0, 50 °C, Initial): 3.495 ppm; Abamectin concentration ([1]; pH 7.0, 25 °C, 7 days): 3.188 ppm; Abamectin concentration ([1]; pH 7.0, 25 °C, 14 days): 3.040 ppm; Abamectin concentration ([1]; pH 7.0, 25 °C, 21 days): 2.829 ppm; Abamectin concentration ([1]; pH 7.0, 25 °C, 28 days): 2.676 ppm; Abamectin concentration ([1]; pH 7.0, 25 °C, Initial): 3.327 ppm; Abamectin concentration ([1]; pH 7.0, 50 °C, 7 days): 2.952 ppm; Abamectin concentration ([1]; pH 7.0, 50 °C, 14 days): 2.780 ppm; Abamectin concentration ([1]; pH 7.0, 50 °C, 21 days): 2.194 ppm; Abamectin concentration ([1]; pH 7.0, 50 °C, 28 days): 1.949 ppm; Abamectin concentration ([1]; pH 7.0, 50 °C, Initial): 3.327 ppm; Abamectin concentration ([1]; pH 9.0, 25 °C, 7 days): 3.005 ppm; Abamectin concentration ([1]; pH 9.0, 25 °C, 14 days): 2.596 ppm; Abamectin concentration ([1]; pH 9.0, 25 °C, 21 days): 2.380 ppm; Abamectin concentration ([1]; pH 9.0, 25 °C, 28 days): 2.287 ppm; Abamectin concentration ([1]; pH 9.0, 25 °C, Initial): 3.555 ppm; Abamectin concentration ([1]; pH 9.0, 50 °C, 7 days): 1.265 ppm; Abamectin concentration ([1]; pH 9.0, 50 °C, 14 days): 0.519 ppm; Abamectin concentration ([1]; pH 9.0, 50 °C, 21 days): 0.205 ppm; Abamectin concentration ([1]; pH 9.0, 50 °C, 28 days): 0.0628 ppm; Abamectin concentration ([1]; pH 9.0, 50 °C, Initial): 3.555 ppm; Abamectin concentration ([2]; pH 4.0, 25° C., Dark, 7 days): 3.130 ppm; Abamectin concentration ([2]; pH 4.0, 25° C., Dark, 14 days): 2.782 ppm; Abamectin concentration ([2]; pH 4.0, 25° C., Dark, 21 days): 2.566 ppm; Abamectin concentration ([2]; pH 4.0, 25° C., Dark, 28 days): 2.524 ppm; Abamectin concentration ([2]; pH 4.0, 25° C., Dark, Initial): 3.495 ppm; Abamectin concentration ([2]; pH 4.0, 25° C., Light (5000-6000 lux), 7 days): 2.923 ppm; Abamectin concentration ([2]; pH 4.0, 25° C., Light (5000-6000 lux), 14 days): 2.332 ppm; Abamectin concentration ([2]; pH 4.0, 25° C., Light (5000-6000 lux), 21 days): 1.961 ppm; Abamectin concentration ([2]; pH 4.0, 25° C., Light (5000-6000 lux), 28 days): 1.666 ppm; Abamectin concentration ([2]; pH 4.0, 25° C., Light (5000-6000 lux), Initial): 3.495 ppm; Abamectin concentration ([2]; pH 7.0, 25° C., Dark, 7 days): 3.188 ppm; Abamectin concentration ([2]; pH 7.0, 25° C., Dark, 14 days): 3.040 ppm; Abamectin concentration ([2]; pH 7.0, 25° C., Dark, 21 days): 2.829 ppm; Abamectin concentration ([2]; pH 7.0, 25° C., Dark, 28 days): 2.676 ppm; Abamectin concentration ([2]; pH 7.0, 25° C., Dark, Initial): 3.327 ppm; Abamectin concentration ([2]; pH 7.0, 25° C., Light (5000-6000 lux), 7 days): 2.941 ppm; Abamectin concentration ([2]; pH 7.0, 25° C., Light (5000-6000 lux), 14 days): 2.529 ppm; Abamectin concentration ([2]; pH 7.0, 25° C., Light (5000-6000 lux), 21 days): 2.223 ppm; Abamectin concentration ([2]; pH 7.0, 25° C., Light (5000-6000 lux), 28 days): 2.034 ppm; Abamectin concentration ([2]; pH 7.0, 25° C., Light (5000-6000 lux), Initial): 3.327 ppm; Abamectin concentration ([2]; pH 9.0, 25° C., Dark, 7 days): 3.005 ppm; Abamectin concentration ([2]; pH 9.0, 25° C., Dark, 14 days): 2.596 ppm; Abamectin concentration ([2]; pH 9.0, 25° C., Dark, 21 days): 2.380 ppm; Abamectin concentration ([2]; pH 9.0, 25° C., Dark, 28 days): 2.287 ppm; Abamectin concentration ([2]; pH 9.0, 25° C., Dark, Initial): 3.555 ppm; Abamectin concentration ([2]; pH 9.0, 25° C., Light (5000-6000 lux), 7 days): 3.163 ppm; Abamectin concentration ([2]; pH 9.0, 25° C., Light (5000-6000 lux), 14 days): 2.810 ppm; Abamectin concentration ([2]; pH 9.0, 25° C., Light (5000-6000 lux), 21 days): 2.360 ppm; Abamectin concentration ([2]; pH 9.0, 25° C., Light (5000-6000 lux), 28 days): 2.173 ppm; Abamectin concentration ([2]; pH 9.0, 25° C., Light (5000-6000 lux), Initial): 3.555 ppm
